Patent US20080004263A1, “Ligands of Follicle Stimulating Hormone Receptor and Methods of Use Thereof” (priority 2004, published 2008)

Target: T1, FSH receptor (Homo sapiens, UniProt P23945)
T1 construct: expressed in transfected cells; host or cells: AV12 cells (stably transfected)
T1 sequence (P23945 18-695): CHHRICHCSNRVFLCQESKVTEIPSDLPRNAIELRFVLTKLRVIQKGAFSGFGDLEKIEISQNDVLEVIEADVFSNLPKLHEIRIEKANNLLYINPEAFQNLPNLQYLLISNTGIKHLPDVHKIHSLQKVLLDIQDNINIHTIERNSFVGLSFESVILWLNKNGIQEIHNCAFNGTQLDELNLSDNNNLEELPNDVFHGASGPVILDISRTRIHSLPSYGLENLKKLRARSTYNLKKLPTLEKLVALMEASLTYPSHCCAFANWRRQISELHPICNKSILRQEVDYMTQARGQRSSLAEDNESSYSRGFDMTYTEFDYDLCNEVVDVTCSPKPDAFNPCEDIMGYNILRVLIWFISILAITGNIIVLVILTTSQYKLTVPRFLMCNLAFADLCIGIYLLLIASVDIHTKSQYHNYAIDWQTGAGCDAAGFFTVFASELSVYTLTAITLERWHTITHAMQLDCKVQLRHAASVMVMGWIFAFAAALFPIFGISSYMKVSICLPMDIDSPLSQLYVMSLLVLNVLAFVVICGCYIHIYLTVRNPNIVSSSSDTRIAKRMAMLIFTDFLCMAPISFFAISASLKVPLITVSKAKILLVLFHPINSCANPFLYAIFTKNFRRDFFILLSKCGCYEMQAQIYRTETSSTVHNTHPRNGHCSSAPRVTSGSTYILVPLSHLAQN
Assay: cAMP Whole Cell assay (AlphaScreen cAMP detection) in AV12 cells stably transfected with FSH receptor
Format: cell-based
Details: AV12 cells expressing FSH receptor; average of two (2) trials
Method: Compounds of the invention were tested for their ability to activate an FSH receptor protein using an AlphaScreen cAMP detection kit (Perkin Elmer; Cat. No. 6760600R).
AV12 cells stably transfected with an expression vector containing an FSH construct and cultured under conditions permissive for cell surface expression of the encoded FSH receptor were harvested from flasks via non-enzymatic means. The cells were washed in PBS and resuspended in Stimulation Buffer. Live cells were counted using a hemacytometer and Trypan blue exclusion, and the cell concentration was adjusted to 2×10^5 cells/ml. A cAMP standard curve in buffer was prepared with a high final concentration of 1 μM, and serially diluted 1:5 in buffer (10 μL/well). Candidate compounds identified as per above (if frozen, thawed at room temperature) were added to their respective wells (in a 384-well plate) at increasing concentrations (5 μL/well; 10 μM final top assay concentration). To these wells, 2,000 cells in 10 μl of Buffer were added and the mixture as well as 5 μL of cAMP Acceptor Beads in Stimulation Buffer. Following a 30 minute incubation, 5 μL of Donor Bead/Biotinylated cAMP was added to each well, followed by incubation at RT for 2 hours. Plates were read in a Perkin Elmer AlphaQuest™ plate reader per manufacturer instructions.

EC50: 1.1 µM
SMILES: Cc1onc(-c2cccc(-c3ccc(-c4nnn[nH]4)cc3)c2)c1-c1csc(C2CCN(C(=O)Cc3cccs3)CC2)n1 [Example 38, 1-[4-(4-{5-Methyl-3-[4′-(1H-tetrazol-5-yl)-biphenyl-3-yl]-isoxazol-4-yl}-thiazol-2-yl)-piperidin-1-yl]-2-thiophen-2-yl-ethanone]
